Key:
EpiSC-derived OPCs = experiment: Formation of differentiated MBP+ oligodendrocytes from OPCs in vitro (high-content imaging); format: cell-based, mouse
Description: EpiSC-derived OPCs were obtained using in vitro differentiation protocols and culture conditions described previously. To ensure uniformity throughout all in vitro screening experiments, EpiSC-derived OPCs were sorted to purity by fluorescence activated cell sorting at passage five with conjugated CD 140a-APC (eBioscience, 17-1401; 1:80) and NG2-AF488 (Millipore, AB5320A4; 1:100) antibodies. Sorted batches of OPCs were expanded and frozen down in aliquots. OPCs were thawed into growth conditions for one passage before use in further assays. Cultures were regularly tested and shown to be mycoplasma free.
EpiSC-derived OPCs were grown and expanded in poly-ornithine (PO) and laminin-coated flasks with growth medium (DMEM/F12 supplemented with N2-MAX (R&D Systems), B-27 (ThermoFisher), GlutaMax (Gibco), FGF2 ([…], R&D systems, 233-FB-025) and PDGF-AA ([…], R&D systems, 233-AA-050) before harvesting for plating. The cells were seeded onto poly-D-lysine 96-well CellCarrier plates (PerkinElmer) coated with laminin (Sigma, L2020; 15 μg/ml) using multi-channel pipet. For the experiment, 800,000 cells/mL stock in differentiation medium (DMEM/F12 supplemented with N2-MAX and B-27) was prepared and stored on ice for 2 h. […]
Plates were imaged on the Operetta High Content Imaging and Analysis system (PerkinElmer) and a set of 6 fields captured from each well resulting in an average of 1200 cells being scored per well. […] Each traced nucleus region was then expanded by 50% and cross-referenced with the […] (MBP) stain to identify oligodendrocyte nuclei, and from this the percentage of oligodendrocytes was calculated. In some experiments, the total process length of MBP+ oligodendrocytes was calculated as previously described.
OPCs were generated from the EpiSC5 cell line. […] To ensure uniformity throughout all in vitro screening experiments, EpiSC-derived OPCs were sorted to purity by fluorescence activated cell sorting at passage five with conjugated CD 140a-APC (eBioscience, 17-1401; 1:80) and NG2-AF488 (Millipore, AB5320A4; 1:100) antibodies. […]

EBP = experiment: Analysis of mouse brain sterol levels in vivo; design: species or system C57-BL6 mice; conditions: mice, 10 mg/kg once daily for 3 days, versus vehicle
Method: Ten to twelve week old male C57BL/6 mice were injected with Cis-N-cyclohexyl-N-ethyl-3-(3-chloro-4-cyclohexylphenyl)prop-2-enylamine dissolved in sterile saline daily for three days. Mice were anaesthetized with isoflurane and perfused with phosphate buffered saline to remove blood from the brain. Brains were collected and flash frozen using liquid nitrogen. The samples were pulverized and 50-100 milligrams of tissue were collected for further processing. A modified Folch protocol was used for extraction of sterols. Briefly, samples were resuspended in a 2:1 chloroform/methanol mixture and homogenized. Cell debris was removed by centrifugation at 4000 g for 10 min. The solution was dried under air and resuspended in hexane with a cholesterol-D7 standard and dried again. Lipids were derivatized with 70 al of bis(trimethylsilyl)trifluoroacetamide; 2 μls were injected and analyzed by GC/MS as described above.
Cis-N-cyclohexyl-N-ethyl-3-(3-chloro-4-cyclohexylphenyl)prop-2-enylamine was dissolved in a vehicle solution containing 80/10/10 saline/DMSO/Kolliphor. C57-BL6 mice were injected at 10 mg/kg once daily for 3 days with either vehicle (DMSO) or Cis-N-cyclohexyl-N-ethyl-3-(3-chloro-4-cyclohexylphenyl)prop-2-enylamine (n=5). (5 mice/condition). After 3 days, mice were anesthetized with isoflurane and perfused with phosphate buffered saline to remove blood from the brain. […] Lipids were derivatized with 70 ul of bis(trimethylsilyl) trifluoroacetamide; Samples were analyzed in […] using electron impact ionization; ion fragment abundances were integrated. 2 ul was analyzed by gas chromatography/mass spectrometry using an Agilent 5973 Network Mass Selective Detector equipped with a 6890 gas chromatograph system and a HP-5MS capillary column ([…]). Samples were analyzed in full scan mode using electron impact ionization; ion fragment peaks were integrated to calculate sterol abundance, and quantitation was relative to cholesterol-d7. The following ion fragments were used to quantitate each metabolite: zymostenol (458), zymosterol (456), Desmosterol. […]

SMILES: CCN(C/C=C\c1ccc(C2CCCCC2)c(Cl)c1)C1CCCCC1 [Cis-N-cyclohexyl-N-ethyl-3-(3-chloro-4-cyclohexylphenyl)prop-2-enylamine]
- number of differentiated MBP+ oligodendrocytes from OPCs compared with ketoconazole (EpiSC-derived OPCs; 63 nM, 125 nM, 250 nM and 500 nM versus ketoconazole 2.5 μM): at higher rates than ketoconazole
- formation of MBP+ oligodendrocytes in culture (FIG. 1A) (EpiSC-derived OPCs; 0.03, 0.1, 0.3 and 1 um, 40,000 cells per well, 3 days): enhances formation of MBP+ oligodendrocytes
- formation of MBP+ oligodendrocytes in in vitro cultures of OPCs (FIG. 4) (EpiSC-derived OPCs; wider range of concentrations (2 nM to 500 nM), 50,000 cells per well, N2B27 media, no growth factors): enhances formation of MBP+ oligodendrocytes
- brain levels of desmosterol (EBP): decreased
- brain levels of zymostenol (EBP): increased
- brain levels of zymosterol (EBP): increased

Reference: patent US10918610B2, “Compounds and methods of promoting myelination” (Case Western Reserve University, priority 2017, dated 2021)
